Assay [1] concerns the target T1, FGF-R4 ECD (Homo sapiens, UniProt P22455).
T1 construct: DNA constructs for the extracellular domain (ECD) of human FGF-; HPC4 (C); made in house; host or cells: HEK 293-6E
T1 sequence (P22455 22-369 limits assumed): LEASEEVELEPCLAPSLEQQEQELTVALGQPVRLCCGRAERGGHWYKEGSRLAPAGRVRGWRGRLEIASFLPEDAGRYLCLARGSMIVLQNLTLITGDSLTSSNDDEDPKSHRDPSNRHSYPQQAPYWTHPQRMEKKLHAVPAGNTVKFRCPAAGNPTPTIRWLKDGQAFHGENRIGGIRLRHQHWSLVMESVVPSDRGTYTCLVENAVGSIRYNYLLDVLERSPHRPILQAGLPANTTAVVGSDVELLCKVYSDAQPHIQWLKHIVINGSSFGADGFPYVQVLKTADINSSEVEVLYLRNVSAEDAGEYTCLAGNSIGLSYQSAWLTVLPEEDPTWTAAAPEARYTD
Description: single concentration BLI of crude peptides. As to conditions: crude NNK peptides, single concentration BLI (Table S3); read-out: KD (4). Type of assay: binding. An outline of the steps:
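Streptavidin biosensors carrying biotinylated FGF receptor ECD were immersed in peptide (~1 μM for crude single-point runs, a concentration series for purified peptides) and then in peptide-free buffer. KD was obtained by fitting the BLI association and dissociation curves.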

Assay [2] concerns the target T2, FGFR4/KLB (Fc-fused human FGF-R4 with beta-klotho) (Homo sapiens, UniProt P22455).
T2 sequence (P22455 22-369 limits assumed): T1 sequence (P22455 22-369 limits assumed)
Description: AlphaScreen FGF21 competitive binding assay. (Alpha assays give light when donor and acceptor beads are brought close together.)
Description: Alphascreen binding assay
(§2) The competitive binding assay was carried out according to the methods detailed in Hansen. et al using
(§3) AlphaScreen.3 All reagents and samples were prepared in assay buffer: 40mM Hepes, 140mM NaCl, 1mM
(§4) CaCl2, 0,05% Tween20, pH=7.5, 0.1% BSA. In brief, recombinant human beta-klotho (R&D Systems) was
(§5) preincubated for 60 min with the ectodomain, either Fc-fused human FGF-R1alpha(IIIc), FGF-R3alpha(IIIc)
(§6) or FGF-R4 (R&D Systems), and the mixture was added to the test peptides in OptiPlate™ (PerkinElmer).
(§7) Biotinylated FGF21 and heparin were further added to each well. AlphaScreen bead mix (1:1 mix of Protein
(§8) A acceptor beads/ streptavidin-coated donor beads, PerkinElmer) were added to each well incubated
(§9) overnight at RT in the dark, and measured on a plate reader (Envision). Assays were carried out in triplicates
(§10) with concentrations ranging from 3, 10, 30, 100, 300 ,1000 and 3000 nM of peptide. No peptide control
(§11) (media only) was used as a negative control, and unlabeled FGF21 and FGF1 as positive control.
(§12) competing with biotinylated natural FGF21 ligand.

Assay [3] has as its target T1, FGF-R4 ECD. Put plainly: multi-concentration BLI of purified peptides. The assay is classed as binding. The settings on record: purified NNK library peptides. An outline of the steps:
(§1)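 Biolayer interferometry with biotinylated FGF-R ECD on streptavidin biosensors in PBS pH 7.4, 0.05% Tween-20, 0.01% BSA. Multi-concentration: purified peptide dilution series fitted to a multi-point KD model.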

In assay [4] the target is T3, FGF-R3C ECD (Homo sapiens, UniProt P22607).
T3 sequence (P22607 23-375 limits assumed): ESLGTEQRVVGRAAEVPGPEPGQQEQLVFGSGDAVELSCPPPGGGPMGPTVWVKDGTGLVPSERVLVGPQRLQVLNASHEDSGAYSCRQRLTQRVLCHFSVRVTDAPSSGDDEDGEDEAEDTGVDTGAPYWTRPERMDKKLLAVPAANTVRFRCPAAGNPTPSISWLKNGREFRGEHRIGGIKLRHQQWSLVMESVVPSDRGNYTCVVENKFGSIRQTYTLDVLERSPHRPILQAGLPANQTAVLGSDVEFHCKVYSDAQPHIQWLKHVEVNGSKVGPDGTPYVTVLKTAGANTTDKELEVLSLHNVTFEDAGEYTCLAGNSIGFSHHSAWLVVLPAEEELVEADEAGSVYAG
Description: biochemical. The method in brief: as §1

Assay [5] concerns the target T4, FGF-R1C ECD (Homo sapiens, UniProt P11362).
T4 sequence (P11362 22-376 limits assumed): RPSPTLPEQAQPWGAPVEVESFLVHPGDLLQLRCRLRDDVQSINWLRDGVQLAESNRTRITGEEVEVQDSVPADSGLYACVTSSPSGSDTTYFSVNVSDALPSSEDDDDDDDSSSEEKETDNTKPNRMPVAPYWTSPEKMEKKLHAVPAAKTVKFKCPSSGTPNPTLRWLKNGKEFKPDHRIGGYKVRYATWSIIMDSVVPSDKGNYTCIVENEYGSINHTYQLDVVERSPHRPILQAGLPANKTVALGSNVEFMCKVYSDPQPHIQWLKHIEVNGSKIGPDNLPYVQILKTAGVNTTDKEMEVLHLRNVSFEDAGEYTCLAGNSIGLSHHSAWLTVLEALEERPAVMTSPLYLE
Put plainly: biochemical. The method in brief:
as §1

Assay [6] concerns the target T5, FGFR3c/BKL (Fc-fused human FGF-R3alpha(IIIc) with beta-klotho) (Homo sapiens, UniProt P22607).
T5 sequence (P22607 23-375 limits assumed): T3 sequence (P22607 23-375 limits assumed)
Put plainly: AlphaScreen FGF21 competitive binding assay.
Description: Alphascreen binding assay
as §2, §3, §4, §5, §6, §7, §8, §9, §10, §11, §12

Assay [7] addresses T6, FGFR1c/KLB (Fc-fused human FGF-R1alpha(IIIc) with beta-klotho) (Homo sapiens, UniProt P11362).
T6 sequence (P11362 22-376 limits assumed): T4 sequence (P11362 22-376 limits assumed)
Put plainly: AlphaScreen FGF21 competitive binding assay.
Description: Alphascreen binding assay
as §2, §3, §4, §5, §6, §7, §8, §9, §10, §11, §12

For assay [8], the target named is T3, FGF-R3C ECD. Description: biochemical. Type of assay: binding. Also noted: DNA constructs for the extracellular domain (ECD) of human FGF-; HPC4 (C); made in house; host or cells: HEK 293-6E. The method in brief: as §1
Assay [9] deals with T4, FGF-R1C ECD. Put plainly: biochemical. Type of assay: binding. On the set-up: DNA constructs for the extracellular domain (ECD) of human FGF-; HPC4 (C); made in house; host or cells: HEK 293-6E. An outline of the steps: as §1

Read-outs that look alike come from different tables or passages of the source.

One may read the Kd as a measure of binding affinity in units of concentration. One may read the IC50 as the concentration that gives 50% inhibition. A higher IC50 goes with weaker potency.

For the molecule `CSCC[C@H](NC(C)=O)C(=O)N[C@H]1CSSC[C@@H](C(=O)NCC(=O)N[C@@H](CO)C(=O)NCC(=O)N[C@@H](CO)C(=O)N[C@@H](CC(=O)O)C(=O)N[C@@H](Cc2ccc(O)cc2)C(=O)N[C@@H](CCCCN)C(=O)N[C@@H](CC(=O)O)C(=O)N[C@@H](CC(=O)O)C(=O)N[C@@H](CC(=O)O)C(=O)N[C@@H](CC(=O)O)C(=O)N[C@@H](CCCCN)C(N)=O)NC(=O)[C@H](CO)NC(=O)[C@H](CCCNC(=N)N)NC(=O)[C@H](Cc2ccccc2)NC(=O)[C@H](C)NC(=O)[C@H](CC(C)C)NC(=O)[C@H](Cc2ccc(O)cc2)NC(=O)[C@H](Cc2ccc(O)cc2)NC(=O)[C@H](C)NC(=O)[C@H](CC(C)C)NC(=O)[C@H](Cc2c[nH]cn2)NC1=O` [4.3], the dissociation constant Kd is 58 nM at FGF-R4 ECD [1]; 86 nM on FGF-R4 ECD [3]; over 1000 nM at FGF-R3C ECD [4]; over 1000 nM at FGF-R1C ECD [5]; over 10000 nM at FGF-R3C ECD [8]; over 10000 nM at FGF-R1C ECD [9]. For the same molecule, the results for the concentration for half-maximal inhibition (IC50) in assay [2], in assay [6] and in assay [7] were 508 nM, over 1000 nM and over 1000 nM, respectively.

As to `CC[C@H](C)[C@@H]1NC(=O)[C@@H](NC(=O)[C@H](CCSC)NC(C)=O)CSSC[C@@H](C(=O)NCC(=O)N[C@@H](CO)C(=O)NCC(=O)N[C@@H](CO)C(=O)N[C@@H](CC(=O)O)C(=O)N[C@@H](Cc2ccc(O)cc2)C(=O)N[C@@H](CCCCN)C(=O)N[C@@H](CC(=O)O)C(=O)N[C@@H](CC(=O)O)C(=O)N[C@@H](CC(=O)O)C(=O)N[C@@H](CC(=O)O)C(=O)N[C@@H](CCCCN)C(N)=O)NC(=O)[C@H](CCC(=O)O)NC(=O)[C@H](C(C)C)NC(=O)[C@H](Cc2c[nH]c3ccccc23)NC(=O)[C@H](Cc2ccccc2)NC(=O)[C@H](CC(=O)O)NC(=O)[C@H](CO)NC(=O)[C@H](CC(C)C)NC(=O)[C@H](CCCNC(=N)N)NC(=O)[C@H](Cc2ccc(O)cc2)NC1=O` [1C.7], the Kd at FGF-R4 ECD [1] is 45 nM; on FGF-R4 ECD [3] it was over 1000 nM; on FGF-R3C ECD [4] it was over 1000 nM; on FGF-R1C ECD [5] it was over 1000 nM; on FGF-R3C ECD [8], 281 nM; on FGF-R1C ECD [9], 47 nM. The values for the concentration for half-maximal inhibition (IC50) in [2], in assay [6] and in assay [7] were 406 nM, 631 nM and 473 nM, respectively.

For `CC[C@H](C)[C@@H]1NC(=O)[C@@H](NC(=O)[C@@H](N)CCSC)CSSC[C@@H](C(=O)NCC(=O)N[C@@H](CO)C(=O)NCC(=O)N[C@@H](CO)C(=O)N[C@@H](CC(=O)O)C(=O)N[C@@H](Cc2ccc(O)cc2)C(=O)N[C@@H](CCCCN)C(=O)N[C@@H](CC(=O)O)C(=O)N[C@@H](CC(=O)O)C(=O)N[C@@H](CC(=O)O)C(=O)N[C@@H](CC(=O)O)C(=O)N[C@@H](CCCCN)C(N)=O)NC(=O)[C@H](CC(C)C)NC(=O)[C@H](Cc2c[nH]c3ccccc23)NC(=O)[C@H](Cc2ccccc2)NC(=O)[C@H](CC(C)C)NC(=O)[C@@H]2CCCN2C(=O)[C@H](CCC(N)=O)NC(=O)[C@H](CCCNC(=N)N)NC(=O)[C@H](C)NC(=O)[C@@H]2CCCN2C(=O)[C@H](Cc2c[nH]c3ccccc23)NC(=O)[C@H](CCCNC(=N)N)NC1=O` [1C.9], the Kd turned out to be 82 nM at FGF-R4 ECD [1]; 82 nM at FGF-R4 ECD [3]; 47 nM on FGF-R3C ECD [4]; 1 nM on FGF-R1C ECD [5]; 112 nM at FGF-R3C ECD [8]; 19 nM at FGF-R1C ECD [9]. Besides, the IC50 in [2] is 67 nM; in assay [6], 15 nM; in assay [7], 17 nM.

As for `CC[C@H](C)[C@@H]1NC(=O)[C@H](C(C)C)NC(=O)[C@H](Cc2c[nH]cn2)NC(=O)[C@@H](NC(=O)[C@H](CCSC)NC(C)=O)CSSC[C@@H](C(=O)NCC(=O)N[C@@H](CO)C(=O)NCC(=O)N[C@@H](CO)C(=O)N[C@@H](CC(=O)O)C(=O)N[C@@H](Cc2ccc(O)cc2)C(=O)N[C@@H](CCCCN)C(=O)N[C@@H](CC(=O)O)C(=O)N[C@@H](CC(=O)O)C(=O)N[C@@H](CC(=O)O)C(=O)N[C@@H](CC(=O)O)C(=O)N[C@@H](CCCCN)C(N)=O)NC(=O)[C@H](Cc2ccc(O)cc2)NC(=O)[C@H](CCCNC(=N)N)NC(=O)[C@H](Cc2c[nH]c3ccccc23)NC(=O)[C@H](CO)NC(=O)[C@H](CCCNC(=N)N)NC(=O)[C@H](Cc2c[nH]c3ccccc23)NC(=O)[C@H](CC(C)C)NC1=O` [4.2], the Kd at FGF-R4 ECD [1] is 93 nM; on FGF-R4 ECD [3], 51 nM; at FGF-R3C ECD [4], over 1000 nM; at FGF-R1C ECD [5], over 1000 nM; on FGF-R3C ECD [8], over 10000 nM; on FGF-R1C ECD [9] it was over 10000 nM. Moreover, the IC50 in [2] is 682 nM; in [6], over 1000 nM; in assay [7] it was over 1000 nM.

In the case of `CC[C@H](C)[C@@H]1NC(=O)[C@@H](NC(=O)[C@H](CCSC)NC(C)=O)CSSC[C@@H](C(=O)NCC(=O)N[C@@H](CO)C(=O)NCC(=O)N[C@@H](CO)C(=O)N[C@@H](CC(=O)O)C(=O)N[C@@H](Cc2ccc(O)cc2)C(=O)N[C@@H](CCCCN)C(=O)N[C@@H](CC(=O)O)C(=O)N[C@@H](CC(=O)O)C(=O)N[C@@H](CC(=O)O)C(=O)N[C@@H](CC(=O)O)C(=O)N[C@@H](CCCCN)C(N)=O)NC(=O)[C@H](Cc2ccccc2)NC(=O)[C@H](CCCNC(=N)N)NC(=O)[C@H](CCCCN)NC(=O)[C@H](Cc2c[nH]cn2)NC(=O)[C@H](C)NC(=O)[C@H](CC(C)C)NC(=O)[C@H](Cc2ccccc2)NC(=O)[C@H](CCSC)NC(=O)[C@H](CCCCN)NC1=O` [4.6], the dissociation constant (Kd) was 97 nM on FGF-R4 ECD [1]; 358 nM at FGF-R4 ECD [3]; over 1000 nM on FGF-R3C ECD [4]; over 1000 nM at FGF-R1C ECD [5]; over 10000 nM on FGF-R3C ECD [8]; over 10000 nM on FGF-R1C ECD [9]. Also, the IC50 in assay [2], in assay [6] and in assay [7] was over 1000 nM throughout.

In the case of `CC[C@H](C)[C@@H]1NC(=O)[C@@H](NC(=O)[C@H](CCSC)NC(C)=O)CSSC[C@@H](C(=O)NCC(=O)N[C@@H](CO)C(=O)NCC(=O)N[C@@H](CO)C(=O)N[C@@H](CC(=O)O)C(=O)N[C@@H](Cc2ccc(O)cc2)C(=O)N[C@@H](CCCCN)C(=O)N[C@@H](CC(=O)O)C(=O)N[C@@H](CC(=O)O)C(=O)N[C@@H](CC(=O)O)C(=O)N[C@@H](CC(=O)O)C(=O)N[C@@H](CCCCN)C(N)=O)NC(=O)[C@H](C(C)C)NC(=O)[C@H](C(C)C)NC(=O)[C@H](Cc2c[nH]c3ccccc23)NC(=O)[C@H](Cc2ccccc2)NC(=O)[C@H](CC(=O)O)NC(=O)[C@H](CO)NC(=O)[C@H](CC(C)C)NC(=O)[C@H](CCCNC(=N)N)NC(=O)[C@H](Cc2ccc(O)cc2)NC1=O` [1C.6], the Kd at FGF-R4 ECD [1] worked out at 47 nM; on FGF-R4 ECD [3] it was 70 nM; on FGF-R3C ECD [4], 361 nM; on FGF-R1C ECD [5], 53 nM; at FGF-R3C ECD [8], 12 nM; at FGF-R1C ECD [9], 19 nM. The half-inhibitory concentration (IC50) in assay [2] was found to be 60 nM; in [6] it was 18 nM; in [7], 29 nM.

Source of the values: publication PMC10763615, “Identification and engineering of potent cyclic peptides with selective or promiscuous binding through biochemical profiling and bioinformatic data analysis” (RSC Chemical Biology, 2023).
